Test results as given in the supplement of paper PMC10307832.

Assays:
Assay in all cases: relative viability (nuclei count vs DMSO), 5 days (fraction); higher = more cells survive
[1] = compound: CN1C=C(C2=CC=CC=C21)/C=C\3/C4=C(C=CC=N4)NC3=O + COc1cc2c(Oc3ccc(NC(=O)C4(C(=O)Nc5ccc(F)cc5)CC4)cc3F)ccnc2cc1OCCCN1CCOCC1 [Foretinib] (partner 0.25 µM)
In short: (§1)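 Relative viability was taken as the ratio of nuclei in treated wells to nuclei in vehicle wells. Lung cancer cell lines in 1536-well plates received compounds by pin tool one day after seeding, either one drug alone or a fixed anchor-drug dose plus five library-drug doses (not always all listed) in √10 steps. Nuclei were counted on 4× images after 5 days of treatment, and values are medians of duplicate plates.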

[2] = compound: CN1C=C(C2=CC=CC=C21)/C=C\3/C4=C(C=CC=N4)NC3=O + Cc1cc(Nc2cc(N3CCN(C)CC3)nc(Sc3ccc(NC(=O)C4CC4)cc3)n2)n[nH]1 [Tozasertib] (partner 0.1 µM)
In short: as §1

[3] = compound: CN1C=C(C2=CC=CC=C21)/C=C\3/C4=C(C=CC=N4)NC3=O + O=C(c1cc(Cc2n[nH]c(=O)c3ccccc23)ccc1F)N1CCN(C(=O)C2CC2)CC1 [Olaparib] (partner 8 µM)
In short: as §1

[4] = compound: CN1C=C(C2=CC=CC=C21)/C=C\3/C4=C(C=CC=N4)NC3=O + CS(=O)(=O)N1CCN(Cc2cc3nc(-c4cccc5[nH]ncc45)nc(N4CCOCC4)c3s2)CC1 [Pictilisib] (partner 1 µM)
In short: as §1

| Cell Line | relative viability ([1]; first compound 0.02 µM) | relative viability ([1]; first compound 0.06325 µM) | relative viability ([1]; first compound 0.2 µM) | relative viability ([1]; first compound 0.6325 µM) | relative viability ([1]; first compound 2 µM) | relative viability ([2]; first compound 0.02 µM) | relative viability ([2]; first compound 0.06325 µM) | relative viability ([2]; first compound 0.2 µM) | relative viability ([2]; first compound 0.6325 µM) | relative viability ([2]; first compound 2 µM) | relative viability ([3]; first compound 0.02 µM) | relative viability ([3]; first compound 0.06325 µM) | relative viability ([3]; first compound 0.2 µM) | relative viability ([3]; first compound 0.6325 µM) | relative viability ([3]; first compound 2 µM) | relative viability ([4]; first compound 0.02 µM) | relative viability ([4]; first compound 0.06325 µM) | relative viability ([4]; first compound 0.2 µM) | relative viability ([4]; first compound 0.6325 µM) | relative viability ([4]; first compound 2 µM) |
| --- | --- | --- | --- | --- | --- | --- | --- | --- | --- | --- | --- | --- | --- | --- | --- | --- | --- | --- | --- | --- |
| CAL-12T | 1.08 | 1.03 | 1.08 | 1.08 | 1.03 | 0.343 | 0.255 | 0.247 | 0.324 | 0.206 | 0.729 | 0.587 | 0.617 | 0.75 | 0.625 | 0.556 | 0.394 | 0.26 | 0.447 | 0.326 |
| NCI-H1993 | 0.665 | 0.739 | 0.72 | 0.788 | 0.688 | 0.565 | 0.565 | 0.552 | 0.652 | 0.559 | 0.781 | 1.09 | 1.06 | 0.972 | 0.966 | 0.743 | 0.772 | 0.826 | 0.809 | 0.804 |
| LXF-289 | 0.943 | 0.957 | 1.04 | 1.05 | 0.977 | 0.14 | 0.195 | 0.217 | 0.213 | 0.182 | 1.09 | 0.998 | 1.19 | 1.07 | 1.1 | 0.811 | 0.764 | 0.793 | 0.77 | 0.806 |
| LU99A | 0.637 | 0.699 | 0.759 | 0.845 | 0.835 | 0.252 | 0.264 | 0.278 | 0.257 | 0.256 | 0.253 | 0.24 | 0.274 | 0.21 | 0.278 | 0.344 | 0.282 | 0.338 | 0.316 | 0.315 |
| SW 1573 | 0.995 | 0.925 | 0.894 | 0.975 | 0.822 | 0.161 | 0.209 | 0.19 | 0.156 | 0.193 | 0.5 | 0.425 | 0.434 | 0.453 | 0.529 | 0.474 | 0.489 | 0.51 | 0.532 | 0.521 |
| COR-L23 | 1.11 | 1.04 | 0.92 | 1.1 | 1.08 | 0.21 | 0.187 | 0.222 | 0.162 | 0.151 | 0.349 | 0.289 | 0.274 | 0.283 | 0.312 | 0.721 | 0.707 | 0.781 | 0.737 | 0.887 |
| NCI-H1755 | 0.813 | 0.83 | 0.899 | 0.838 | 0.833 | 0.56 | 0.557 | 0.605 | 0.502 | 0.509 | 0.903 | 0.946 | 0.83 | 0.699 | 0.681 | 0.405 | 0.342 | 0.302 | 0.365 | 0.37 |
| LOU-NH91 | 0.904 | 0.915 | 0.835 | 0.925 | 0.9 | 0.567 | 0.661 | 0.621 | 0.688 | 0.657 | 0.906 | 0.871 | 0.883 | 0.841 | 0.901 | 0.466 | 0.455 | 0.481 | 0.498 | 0.491 |
